Article PMC9485985 (Journal of Innate Immunity, 2021)
Peptide text beside a SMILES is read from it.

Legend:
0.5% whole blood = settings: ref [5], [7], [11], [12], [38]; cited from earlier work
RAW264.7 cells = assay: Uptake of TAMRA-labeled TCPs, flow cytometry; assay type: cell-based, murine; settings: Fig. 1d, inhibitor 30 min then 2 µM T-GKY25 1 h, n = 3-4
[1] = ref [11]; cited from earlier work

CC[C@H](C)[C@H](NC(=O)[C@H](Cc1c[nH]c2ccccc12)NC(=O)[C@H](CCCCN)NC(=O)[C@H](CCCCN)NC(=O)[C@H](CC(C)C)NC(=O)[C@H](CCCNC(=N)N)NC(=O)[C@H](Cc1ccccc1)NC(=O)[C@@H](NC(=O)[C@@H](N)Cc1cnc[nH]1)C(C)C)C(=O)N[C@@H](CCC(N)=O)C(=O)N[C@@H](CCCCN)C(=O)N[C@H](C(=O)N[C@H](C(=O)N[C@@H](CC(=O)O)C(=O)N[C@@H](CCC(N)=O)C(=O)N[C@@H](Cc1ccccc1)C(=O)NCC(=O)N[C@@H](CCC(=O)O)C(=O)O)[C@@H](C)CC)C(C)C [HVF18] (H-HVFRLKKWIQKVIDQFGE-OH)
concentration from which hemolysis is induced (0.5% whole blood): > 80 µM

CN(C)c1cccc2c(S(=O)(=O)NCCCCCN)cccc12 [dansylcadaverine, Dansylcadaverine]
effect of inhibitor on uptake of T-GKY25 (RAW264.7 cells): did not show any effect

WFFFYYLIIGGGVVTHQQRKKKKDE [WFF25]
immunomodulatory effects [1]: did not show any immunomodulatory effects
